We go through 32 compounds from US9974785B2, “Aromatic heterocyclic derivatives and pharmaceutical applications thereof” (SUNSHINE LAKE PHARMA CO., LTD., priority 2014, dated 2018).

The structures appear in SMILES notation.

The target in one data set is human 5-HT6 receptor (Homo sapiens (Human), UniProt P50406). The experiment in a line: Radioligand binding assay, human 5-HT6 receptor expressed in CHO cell. The settings on record: 2 nM [3H]LSD. The protocol:
Example A: The Binding Affinities of the Compounds of this Invention to Human 5-HT6 Receptor Expressed in CHO Cell were Evaluated by Radioligand Binding Assay as Follows
32 μg membrane proteins of CHO cell expressing human 5-HT6 receptor, 2 nM of radioactive marker [3H]LSD, a compound of the present invention having different test concentrations, 100 μM 5-HT (5-HT was used to eliminate nonspecific binding sites) and a buffer solution were mixed uniformly. Then the resulting mixture was incubated at 37° C. for 120 min, in which the buffer solution comprised 50 mM Tris-HCl (pH 7.4), 10 mM MgCl2, 0.5 mM EDTA, 10 μM pargyline and 20 mg/L protease inhibitor.
After incubation, the resulting mixture was filtered by a fiberglass filter (GF/B, Packard) in vacuo, and the filter membrane of the fiberglass filter was preimpregnated with 0.3% PEI before the filtering and washed with 50 mM of Tris-HCl for several times after the filtering. After the filter membrane was dried, and the radioactivity of filter membrane was determined by liquid scintillation counting by using a scintillometer (Topcount, Packard). The reference standard was 5-HT, and competitive inhibition curves were plotted based on several inhibition ratios and the corresponding compound concentrations. IC50 values were calculated by non-linear regression analysis using Hill equation curves, and the Ki values were calculated from IC50 by using the ChengPrusoff equation.

Data set [1] is described as follows: Stability in rat liver microsomes. The conditions noted are these: rat liver microsome 0.5 mg/mL, 1 μM compound, 37° C. The data set is classed as in vitro ADME. Here is the method: (§1) Example C: Evaluation of the Stability of the Compounds of the Invention in Rat and Human Liver Microsomes
(§2) The compound of the invention and rat liver microsome or human liver microsome were placed in 0.1 M potassium phosphate buffer (containing 1.0 mM EDTA, pH=7.4) at 37° C., and the mixture was incubated at 37° C. The concentrations of the compound at different incubation time points were determined, and the half-life of the compound was calculated by curve plotted based on the relative contents of the compound and the corresponding incubation times by using GraphPad Prism 5.01. Then the intrinsic clearance was calculated.
(§3) The peak area ratio of sample to internal standard was analyzed by the LC/MS/MS system. The content of the compound at 0 min was 100%, and the relative contents of the compound at different time points were calculated. The half-life of the compound was calculated by curve plotted based on the relative contents of the compound and the corresponding incubation times, and the intrinsic clearance was calculated.
A general note: Liver microsomes are a subcellular fraction often used to study metabolism.

Data set [2] is described as follows: Stability in human liver microsomes. Format: in vitro ADME. The conditions noted are these: liver microsomes, human liver microsome 0.5 mg/mL, 1 μM compound, 37° C., pH 7.4. Here is the method:
as §1, §2, §3

Chain of human 5-HT6 receptor (P50406 whole entry): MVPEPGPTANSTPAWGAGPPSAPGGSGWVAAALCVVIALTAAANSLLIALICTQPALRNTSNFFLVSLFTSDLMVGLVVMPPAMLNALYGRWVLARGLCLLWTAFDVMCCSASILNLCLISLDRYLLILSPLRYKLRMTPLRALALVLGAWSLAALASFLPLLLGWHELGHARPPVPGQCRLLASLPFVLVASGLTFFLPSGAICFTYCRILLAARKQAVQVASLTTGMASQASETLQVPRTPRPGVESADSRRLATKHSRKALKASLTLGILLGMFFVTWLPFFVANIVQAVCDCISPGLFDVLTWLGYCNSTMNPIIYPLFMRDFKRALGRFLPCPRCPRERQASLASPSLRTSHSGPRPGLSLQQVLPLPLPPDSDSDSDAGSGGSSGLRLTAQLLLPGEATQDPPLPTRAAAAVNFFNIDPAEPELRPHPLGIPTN

As usually defined, the Ki is a measure of affinity in units of concentration, obtained from inhibition or displacement. Higher therefore signals a looser hold on the target. As to `O=S(=O)(c1ccccc1)n1cc(C(F)F)c2c(N3CCNCC3)cccc21` [Example 1, 3-(difluoromethyl)-1-(phenylsulfonyl)-4-(piperazin-1-yl)-1H-indole], the inhibition constant Ki at human 5-HT6 receptor amounted to 1.6 nM. Broadly, the half-life is the time in which the quantity being followed falls by half. In the case of `O=S(=O)(c1ccccc1Br)n1cc(C(F)F)c2c(N3CCNCC3)cccc21` [Example 4, 1-((2-bromophenyl)sulfonyl)-3-(difluoromethyl)-4-(piperazin-1-yl)-1H-indole], the results for the half-life at 1 μM in data set [1] (pH 7.4) and in data set [2] were 0.506 h and 2.62 h, respectively. The CLint scaled at 1 μM in data set [1] (pH 7.4, read-out: Intrinsic clearance) came out at 81.8 mL/min/kg; in data set [2] (read-out: Intrinsic clearance) it was 11.1 mL/min/kg. The Ki on human 5-HT6 receptor stood at 1.1 nM.

The compound `Cc1ccc(S(=O)(=O)n2cc(C(F)F)c3c(N4CCNCC4)cccc32)cc1` [Example 7, 3-(difluoromethyl)-4-(piperazin-1-yl)-1-tosyl-1H-indole] gave a Ki at human 5-HT6 receptor of 6.4 nM. Same read-out and setting: with `COc1ccc(S(=O)(=O)n2cc(C(F)F)c3c(N4CCNCC4)cccc32)cc1` [Example 8, 3-(difluoromethyl)-1-((4-methoxyphenyl)sulfonyl)-4-(piperazin-1-yl)-1H-indole] the figure was 12 nM; with `O=S(=O)(c1ccc2ccccc2c1)n1cc(C(F)F)c2c(N3CCNCC3)cccc21` [Example 10, 3-(difluoromethyl)-1-(naphthalen-2-ylsulfonyl)-4-(piperazin-1-yl)-1H-indole], 0.5 nM. Same read-out and setting: with `O=S(=O)(c1ccccc1)n1cc(C(F)F)c2cc(N3CCNCC3)ccc21` [Example 11, 3-(difluoromethyl)-1-(phenylsulfonyl)-5-(piperazin-1-yl)-1H-indole] the figure was 11 nM; with `O=S(=O)(c1ccccc1F)n1cc(C(F)F)c2cc(N3CCNCC3)ccc21` [Example 12, 3-(difluoromethyl)-1-((2-fluorophenyl)sulfonyl)-5-(piperazin-1-yl)-1H-indole], 30 nM.

`O=S(=O)(c1ccccc1Cl)n1cc(C(F)F)c2cc(N3CCNCC3)ccc21` [Example 13, 1-((2-chlorophenyl)sulfonyl)-3-(difluoromethyl)-5-(piperazin-1-yl)-1H-indole] displayed a Ki at human 5-HT6 receptor of 13 nM. As to `O=S(=O)(c1ccccc1Br)n1cc(C(F)F)c2cc(N3CCNCC3)ccc21` [Example 14, 1-((2-bromophenyl)sulfonyl)-3-(difluoromethyl)-5-(piperazin-1-yl)-1H-indole], affinity on human 5-HT6 receptor was put at a Ki of 20 nM. Against the preceding compound, the Ki is about 1.5-fold higher. Same read-out and setting: with `Cc1ccc(S(=O)(=O)n2cc(C(F)F)c3cc(N4CCNCC4)ccc32)cc1` [Example 15, 3-(difluoromethyl)-5-(piperazin-1-yl)-1-tosyl-1H-indole] the figure was 17 nM; with `COc1ccc(S(=O)(=O)n2cc(C(F)F)c3cc(N4CCNCC4)ccc32)cc1` [Example 16, 3-(difluoromethyl)-1-((4-methoxyphenyl)sulfonyl)-5-(piperazin-1-yl)-1H-indole], 67 nM; with `O=S(=O)(c1cccc(F)c1)n1cc(C(F)F)c2cc(N3CCNCC3)ccc21` [Example 17, 3-(difluoromethyl)-1-((3-fluorophenyl)sulfonyl)-5-(piperazin-1-yl)-1H-indole], 13 nM. Still for that read-out and setting: the result for `O=S(=O)(c1cccc(Cl)c1)n1cc(C(F)F)c2cc(N3CCNCC3)ccc21` [Example 18, 1-((3-chlorophenyl)sulfonyl)-3-(difluoromethyl)-5-(piperazin-1-yl)-1H-indole] reads 15 nM; that for `O=S(=O)(c1cccc(Br)c1)n1cc(C(F)F)c2cc(N3CCNCC3)ccc21` [Example 19, 1-((3-bromophenyl)sulfonyl)-3-(difluoromethyl)-5-(piperazin-1-yl)-1H-indole], 13 nM; that for `O=S(=O)(c1ccc(Cl)cc1)n1cc(C(F)F)c2cc(N3CCNCC3)ccc21` [Example 20, 1-((4-chlorophenyl)sulfonyl)-3-(difluoromethyl)-5-(piperazin-1-yl)-1H-indole], 44 nM. Still for that read-out and setting: with `O=S(=O)(c1ccc(Br)cc1)n1cc(C(F)F)c2cc(N3CCNCC3)ccc21` [Example 21, 1-((4-bromophenyl)sulfonyl)-3-(difluoromethyl)-5-(piperazin-1-yl)-1H-indole] the figure was 44 nM; with `O=S(=O)(c1ccccc1C(F)(F)F)n1cc(C(F)F)c2c(N3CCNCC3)cc(Cl)cc21` [Example 23, 6-chloro-3-(difluoromethyl)-4-(piperazin-1-yl)-1-((2-(trifluoromethyl)phenyl)sulfonyl)-1H-indole], 9.3 nM; with `O=S(=O)(c1ccccc1F)n1cc(C(F)F)c2c(N3CCNCC3)cc(Cl)cc21` [Example 24, 6-chloro-3-(difluoromethyl)-1-((2-fluorophenyl)sulfonyl)-4-(piperazin-1-yl)-1H-indole], 1.6 nM.

On to `O=S(=O)(c1ccccc1Cl)n1cc(C(F)F)c2c(N3CCNCC3)cc(Cl)cc21` [Example 25, 6-chloro-1-((2-chlorophenyl)sulfonyl)-3-(difluoromethyl)-4-(piperazin-1-yl)-1H-indole], for which the Ki at human 5-HT6 receptor amounted to 0.68 nM. At human 5-HT6 receptor, `O=S(=O)(c1ccccc1Br)n1cc(C(F)F)c2c(N3CCNCC3)cc(Cl)cc21` [Example 26, 1-((2-bromophenyl)sulfonyl)-6-chloro-3-(difluoromethyl)-4-(piperazin-1-yl)-1H-indole] yielded a Ki of 1.1 nM. The same measure, in the same setting: with `O=S(=O)(c1cccc(F)c1)n1cc(C(F)F)c2c(N3CCNCC3)cc(Cl)cc21` [Example 27, 6-chloro-3-(difluoromethyl)-1-((3-fluorophenyl)sulfonyl)-4-(piperazin-1-yl)-1H-indole] the figure was 1.9 nM.

For the compound `O=S(=O)(c1cccc(Cl)c1)n1cc(C(F)F)c2c(N3CCNCC3)cc(Cl)cc21` [Example 28, 6-chloro-1-((3-chlorophenyl)sulfonyl)-3-(difluoromethyl)-4-(piperazin-1-yl)-1H-indole], the Ki at human 5-HT6 receptor was 1.4 nM. As to `O=S(=O)(c1cccc(Br)c1)n1cc(C(F)F)c2c(N3CCNCC3)cc(Cl)cc21` [Example 29, 1-((3-bromophenyl)sulfonyl)-6-chloro-3-(difluoromethyl)-4-(piperazin-1-yl)-1H-indole], the Ki at human 5-HT6 receptor is 1.3 nM. This Ki and that of the compound before are within 1.5-fold of each other. Still for that read-out and setting: with `O=S(=O)(c1cccc(F)c1)n1cc(C(F)F)c2c(N3CCNCC3)cc(Br)cc21` [Example 35, 6-bromo-3-(difluoromethyl)-1-((3-fluorophenyl)sulfonyl)-4-(piperazin-1-yl)-1H-indole] the figure was 1.9 nM. Still for that read-out and setting: the result for `O=S(=O)(c1cccc(Cl)c1)n1cc(C(F)F)c2c(N3CCNCC3)cc(Br)cc21` [Example 36, 6-bromo-1-((3-chlorophenyl)sulfonyl)-3-(difluoromethyl)-4-(piperazin-1-yl)-1H-indole] reads 1.7 nM; that for `O=S(=O)(c1cccc(Br)c1)n1cc(C(F)F)c2c(N3CCNCC3)cc(Br)cc21` [Example 37, 6-bromo-1-((3-bromophenyl)sulfonyl)-3-(difluoromethyl)-4-(piperazin-1-yl)-1H-indole], 1.5 nM; that for `CN1CCN(c2cccc3c2c(C(F)F)cn3S(=O)(=O)c2cccc(F)c2)CC1` [Example 42, 3-(difluoromethyl)-1-((3-fluorophenyl)sulfonyl)-4-(4-methylpiperazin-1-yl)-1H-indole], 0.7 nM. On the same count and under the same terms, with `CCN1CCN(c2cccc3c2c(C(F)F)cn3S(=O)(=O)c2cccc(F)c2)CC1` [Example 43, 3-(difluoromethyl)-4-(4-ethylpiperazin-1-yl)-1-((3-fluorophenyl)sulfonyl)-1H-indole] the figure was 2.3 nM. On human 5-HT6 receptor, `CC(C)N1CCN(c2cccc3c2c(C(F)F)cn3S(=O)(=O)c2cccc(F)c2)CC1` [Example 44, 3-(difluoromethyl)-1-((3-fluorophenyl)sulfonyl)-4-(4-isopropylpiperazin-1-yl)-1H-indole] displayed a Ki of 27 nM.

Compound `O=S(=O)(c1cccc(F)c1)n1cc(C(F)F)c2c(NC3CCNCC3)cccc21` [Example 52, 3-(difluoromethyl)-1-((3-fluorophenyl)sulfonyl)-N-(piperidin-4-yl)-1H-indol-4-amine] gave a Ki on human 5-HT6 receptor of 18 nM. On human 5-HT6 receptor, `O=S(=O)(c1cccc(Br)c1)n1cc(C(F)F)c2c(NC3CCNCC3)cccc21` [Example 54, 1-((3-bromophenyl)sulfonyl)-3-(difluoromethyl)-N-(piperidin-4-yl)-1H-indol 4-amine] registered a Ki of 11 nM. The same measure, in the same setting: with `O=S(=O)(c1ccccc1)n1cc(C(F)F)c2c(NC3CCNCC3)cccc21` [Example 55, 3-(difluoromethyl)-1-(phenylsulfonyl)-N-(piperidin-4-yl)-1H-indol-4-amine] the figure was 65 nM.
